These results are taken from patent publication US20260258035A1, “FIVE-MEMBERED AND SIX-MEMBERED NITROGEN-CONTAINING COMPOUND, AND INTERMEDIATE, PREPARATION METHOD AND USE THEREOF” (HANGZHOU SYNRX THERAPEUTICS BIOMEDICAL TECHNOLOGY CO., LTD., priority 2022, published 2026).

Structures are written as SMILES. Where two headings read alike, the source gives them in different places.

In one assay the target is PARG (Homo sapiens, UniProt Q86W56). The assay can be described thus: Biochemical assay (PARG, TFMU-ADPr substrate). The following applies: PARG, TFMU-ADPr substrate.
PARG, sequence (Q86W56 whole entry): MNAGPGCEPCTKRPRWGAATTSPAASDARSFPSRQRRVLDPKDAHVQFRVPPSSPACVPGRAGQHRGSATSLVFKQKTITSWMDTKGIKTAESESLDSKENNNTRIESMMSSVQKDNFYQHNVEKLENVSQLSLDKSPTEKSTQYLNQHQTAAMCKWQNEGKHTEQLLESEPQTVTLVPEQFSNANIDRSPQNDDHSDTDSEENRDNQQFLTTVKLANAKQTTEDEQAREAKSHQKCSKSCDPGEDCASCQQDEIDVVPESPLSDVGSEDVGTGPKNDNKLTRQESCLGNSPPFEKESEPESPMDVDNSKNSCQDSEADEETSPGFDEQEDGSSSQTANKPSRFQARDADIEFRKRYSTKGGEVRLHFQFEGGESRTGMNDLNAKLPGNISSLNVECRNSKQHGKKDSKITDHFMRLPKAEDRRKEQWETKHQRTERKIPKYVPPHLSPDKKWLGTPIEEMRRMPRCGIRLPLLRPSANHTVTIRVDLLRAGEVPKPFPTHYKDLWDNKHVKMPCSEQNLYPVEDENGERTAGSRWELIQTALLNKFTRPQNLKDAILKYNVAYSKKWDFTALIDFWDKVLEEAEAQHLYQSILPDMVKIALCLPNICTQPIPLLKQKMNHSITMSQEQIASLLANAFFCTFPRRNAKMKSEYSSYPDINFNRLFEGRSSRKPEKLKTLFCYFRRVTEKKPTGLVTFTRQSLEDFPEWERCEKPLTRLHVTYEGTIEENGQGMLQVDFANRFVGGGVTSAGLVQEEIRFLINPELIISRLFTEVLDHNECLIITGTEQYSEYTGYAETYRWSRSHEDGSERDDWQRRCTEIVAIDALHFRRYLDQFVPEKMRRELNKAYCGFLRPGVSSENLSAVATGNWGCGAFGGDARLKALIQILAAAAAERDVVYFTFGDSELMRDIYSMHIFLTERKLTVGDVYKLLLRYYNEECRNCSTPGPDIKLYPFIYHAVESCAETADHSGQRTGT
The subject of a further assay is HCC1806. The assay can be described thus: Cell viability assay (CellTiter-Glo). In kind it is cell-based, Human. As to conditions: HCC1806, 7 days, CellTiter-Glo, read-out: IC50 (nM) in cell viability assay. Background: ATP-based viability assays read luminescence as a measure of living cells.

`CC(C)N1CC(C(=O)N2CCN(c3cc(S(=O)(=O)NC4(C#N)CC4)cn4c(-c5nnc(C(F)F)s5)ncc34)C[C@H]2C)C1` [Example 295, (R)-N-(1-cyanocyclopropyl)-3-(5-(difluoromethyl)-1,3,4-thiadiazol-2-yl)-8-(4-(1-isopropylazetidine-3-carbonyl)-3-methylpiperazin-1-yl)imidazo[1,5-a]pyridine-6-sulfonamide]: the IC50 – broadly, the midpoint of a concentration-inhibition curve – on PARG was found to be 39.8 nM; with HCC1806 (Homo sapiens, HCC1806, 168 h) it was 2820 nM.

Turning to `COC(C)(C)C(=O)N1CCN(c2cc(S(=O)(=O)NC3(C#N)CC3)cn3c(-c4nnc(C(F)(F)F)s4)ncc23)CC1` [Example 296, N-(1-cyanocyclopropyl)-8-(4-(2-methoxy-2-methylpropanoyl)piperazin-1-yl)-3-(5-(trifluoromethyl)-1,3,4-thiadiazol-2-yl)imidazo[1,5-a]pyridine-6-sulfonamide], the IC50 against PARG came to 3.02 nM; in the assay with HCC1806 (Homo sapiens, HCC1806, 168 h), 38.7 nM.

As to `N#CC1(NS(=O)(=O)c2cc(N3CCN(C(=O)C4C5COCC54)CC3)c3cnc(-c4nnc(C(F)(F)F)s4)n3c2)CC1` (centres unmarked) [Example 297, 8-(4-(3-oxabicyclo[3.1.0]hexane-6-carbonyl)piperazin-1-yl)-N-(1-cyanocyclopropyl)-3-(5-(trifluoromethyl)-1,3,4-thiadiazol-2-yl)imidazo[1,5-a]pyridine-6-sulfonamide], the IC50 amounted to 55 nM against PARG and 362 nM in the assay on HCC1806 (Homo sapiens, HCC1806, 168 h).

On to `CC1(C(=O)N2CCN(c3cc(S(=O)(=O)NC4(C#N)CC4)cn4c(-c5nnc(C(F)(F)F)s5)ncc34)CC2)COC1` [Example 299, N-(1-cyanocyclopropyl)-8-(4-(3-methyloxetane-3-carbonyl)piperazin-1-yl)-3-(5-(trifluoromethyl)-1,3,4-thiadiazol-2-yl)imidazo[1,5-a]pyridine-6-sulfonamide], for which the IC50 on PARG stood at 24 nM; in the assay with HCC1806 (Homo sapiens, HCC1806, 168 h) it was 1030 nM.

As to `N#CC1(NS(=O)(=O)c2cc(N3CCN(C(=O)C4CCO4)CC3)c3cnc(-c4nnc(C(F)(F)F)s4)n3c2)CC1` (centres unmarked) [Example 300, N-(1-cyanocyclopropyl)-8-(4-(oxetane-2-carbonyl)piperazin-1-yl)-3-(5-(trifluoromethyl)-1,3,4-thiadiazol-2-yl)imidazo[1,5-a]pyridine-6-sulfonamide], the IC50 on PARG came out at 31.6 nM; in the assay with HCC1806, 403 nM.

As for `N#CC1(NS(=O)(=O)c2cc(N3CCN(C(=O)[C@@H]4CCCO4)CC3)c3cnc(-c4nnc(C(F)(F)F)s4)n3c2)CC1` [Example 301, (S)-N-(1-cyanocyclopropyl)-8-(4-(tetrahydrofuran-2-carbonyl)piperazin-1-yl)-3-(5-(trifluoromethyl)-1,3,4-thiadiazol-2-yl)imidazo[1,5-a]pyridine-6-sulfonamide], the IC50 at PARG came out at 50.1 nM; in the assay on HCC1806 (Homo sapiens, HCC1806, 168 h), 436 nM.

For `C[C@@H]1CN(c2cc(S(=O)(=O)NC3(C#N)CC3)cn3c(-c4nnc(C(F)(F)F)s4)ncc23)CCN1C(=O)C1CCO1` (stereo partly drawn) [Example 302, N-(1-cyanocyclopropyl)-8-((3R)-3-methyl-4-(oxetane-2-carbonyl)piperazin-1-yl)-3-(5-(trifluoromethyl)-1,3,4-thiadiazol-2-yl)imidazo[1,5-a]pyridine-6-sulfonamide], the IC50 at PARG is 15.4 nM; in the assay with HCC1806 (Homo sapiens, HCC1806, 168 h), 329 nM.

`N#CC1(NS(=O)(=O)c2cc(N3CCN(C(=O)[C@H]4CCCO4)CC3)c3cnc(-c4nnc(C(F)(F)F)s4)n3c2)CC1` [Example 303, (R)-N-(1-cyanocyclopropyl)-8-(4-(tetrahydrofuran-2-carbonyl)piperazin-1-yl)-3-(5-(trifluoromethyl)-1,3,4-thiadiazol-2-yl)imidazo[1,5-a]pyridine-6-sulfonamide]: the 50% inhibitory concentration (IC50) is 20.9 nM against PARG and 435 nM with HCC1806 (Homo sapiens, HCC1806, 168 h).

Regarding `CC1(NS(=O)(=O)c2cc(N3CCN(C(=O)C4CCO4)CC3)c3cnc(-c4nnc(C(F)(F)F)s4)n3c2)CC1` (centres unmarked) [Example 304, N-(1-methylcyclopropyl)-8-(4-(oxetane-2-carbonyl)piperazin-1-yl)-3-(5-(trifluoromethyl)-1,3,4-thiadiazol-2-yl)imidazo[1,5-a]pyridine-6-sulfonamide], the IC50 on PARG amounted to 3.86 nM; in the assay on HCC1806 (Homo sapiens, HCC1806, 168 h), 70 nM.

As to `CC1(NS(=O)(=O)c2cc(N3CCC(O)CC3)c3cnc(-c4nnc(C(F)F)s4)n3c2)CC1` [Example 305, 3-(5-(difluoromethyl)-1,3,4-thiadiazol-2-yl)-8-(4-hydroxypiperidin-1-yl)-N-(1-methylcyclopropyl)imidazo[1,5-a]pyridine-6-sulfonamide], the IC50 against PARG was determined as 6.91 nM; in the assay on HCC1806 (Homo sapiens, HCC1806, 168 h), 130 nM.

As for `C[C@@H]1CN(c2cc(S(=O)(=O)NC3(C)CC3)cn3c(-c4nnc(C(F)(F)F)s4)ncc23)CCN1C(=O)[C@H]1CCN1C` [Example 306, 8-((R)-3-methyl-4-((R)-1-methylazetidine-2-carbonyl)piperazin-1-yl)-N-(1-methylcyclopropyl)-3-(5-(trifluoromethyl)-1,3,4-thiadiazol-2-yl)imidazo[1,5-a]pyridine-6-sulfonamide], the IC50 on PARG stood at 6.11 nM; in the assay on HCC1806 (Homo sapiens, HCC1806, 168 h) it was 89 nM.

Take `CC1(NS(=O)(=O)c2cc(N3CCN(C(=O)c4ccc5c(c4)OCO5)CC3)c3cnc(-c4nnc(C(F)(F)F)s4)n3c2)CC1` [Example 307, 8-(4-(benzo[d][1,3]dioxole-5-carbonyl)piperazin-1-yl)-N-(1-methylcyclopropyl)-3-(5-(trifluoromethyl)-1,3,4-thiadiazol-2-yl)imidazo[1,5-a]pyridine-6-sulfonamide]: the IC50 against PARG amounted to 4.13 nM; in the assay with HCC1806 (Homo sapiens, HCC1806, 168 h), 540 nM.

`CN(C)C(=O)N1CCN(c2cc(S(=O)(=O)NC3(C)CC3)cn3c(-c4nnc(C(F)F)s4)ncc23)CC1` [Example 308, 4-(3-(5-(difluoromethyl)-1,3,4-thiadiazol-2-yl)-6-(N-(1-methylcyclopropyl)sulfamoyl)imidazo[1,5-a]pyridin-8-yl)-N,N-dimethylpiperazine-1-carboxamide]: the IC50 against PARG was determined as 0.73 nM; in the assay on HCC1806 (Homo sapiens, HCC1806, 168 h) it was 104 nM.

As to `CN1CC[C@@H]1C(=O)N1CCN(c2cc(S(=O)(=O)NC3(C)CC3)cn3c(-c4nnc(C(F)F)s4)ncc23)CC1` [Example 309, (R)-3-(5-(difluoromethyl)-1,3,4-thiadiazol-2-yl)-8-(4-(1-methylazetidine-2-carbonyl)piperazin-1-yl)-N-(1-methylcyclopropyl)imidazo[1,5-a]pyridine-6-sulfonamide], the IC50 against PARG is 1.03 nM; in the assay on HCC1806 (Homo sapiens, HCC1806, 168 h) it was 570 nM.

With `COC1(C(=O)N2CCN(c3cc(S(=O)(=O)NC4(C)CC4)cn4c(-c5nnc(C(F)F)s5)ncc34)CC2)CN(C)C1` [Example 310, 3-(5-(difluoromethyl)-1,3,4-thiadiazol-2-yl)-8-(4-(3-methoxy-1-methylazetidine-3-carbonyl)piperazin-1-yl)-N-(1-methylcyclopropyl)imidazo[1,5-a]pyridine-6-sulfonamide], the IC50 against PARG is under 0.1 nM; in the assay with HCC1806 (Homo sapiens, HCC1806, 168 h), 38 nM.

On to `COC1(C(=O)N2CCN(c3cc(S(=O)(=O)NC4(C)CC4)cn4c(-c5nnc(C(F)F)s5)ncc34)CC2)CN(CCF)C1` [Example 312, 3-(5-(difluoromethyl)-1,3,4-thiadiazol-2-yl)-8-(4-(1-(2-fluoroethyl)-3-methoxyazetidine-3-carbonyl)piperazin-1-yl)-N-(1-methylcyclopropyl)imidazo[1,5-a]pyridine-6-sulfonamide], for which the 50% inhibitory concentration (IC50) is under 0.1 nM against PARG and 6.02 nM with HCC1806 (Homo sapiens, HCC1806, 168 h).

Turning to `CC1(NS(=O)(=O)c2cc(N3CCN(C(=O)C4(C)CNC4)CC3)c3cnc(-c4nnc(C(F)(F)F)s4)n3c2)CC1` [Example 313, 8-(4-(3-methylazetidine-3-carbonyl)piperazin-1-yl)-N-(1-methylcyclopropyl)-3-(5-(trifluoromethyl)-1,3,4-thiadiazol-2-yl)imidazo[1,5-a]pyridine-6-sulfonamide], the IC50 came to 1.64 nM at PARG and 2050 nM in the assay on HCC1806 (Homo sapiens, HCC1806, 168 h).

For the compound `CN1CC(C)(C(=O)N2CCN(c3cc(S(=O)(=O)NC4(C)CC4)cn4c(-c5nnc(C(F)(F)F)s5)ncc34)CC2)C1` [Example 314, 8-(4-(1,3-dimethylazetidine-3-carbonyl)piperazin-1-yl)-N-(1-methylcyclopropyl)-3-(5-(trifluoromethyl)-1,3,4-thiadiazol-2-yl)imidazo[1,5-a]pyridine-6-sulfonamide], the IC50 against PARG was determined as 0.68 nM; with HCC1806 (Homo sapiens, HCC1806, 168 h), 241 nM.

With `C[C@@H]1CN(c2cc(S(=O)(=O)NC3(C)CC3)cn3c(-c4nnc(C(F)F)s4)ncc23)CCN1C(=O)C1CNC1` [Example 315, (R)-8-(4-(azetidine-3-carbonyl)-3-methylpiperazin-1-yl)-3-(5-(difluoromethyl)-1,3,4-thiadiazol-2-yl)-N-(1-methylcyclopropyl)imidazo[1,5-a]pyridine-6-sulfonamide], the IC50 against PARG came out at 0.96 nM; with HCC1806 (Homo sapiens, HCC1806, 168 h) it was 5700 nM.

Turning to `CC1(NS(=O)(=O)c2cc(N3CCN(C(=O)[C@@H]4CCCN4)CC3)c3cnc(-c4nnc(C(F)(F)F)s4)n3c2)CC1` [Example 316, (S)-N-(1-methylcyclopropyl)-8-(4-prolylpiperazin-1-yl)-3-(5-(trifluoromethyl)-1,3,4-thiadiazol-2-yl)imidazo[1,5-a]pyridine-6-sulfonamide], the IC50 against PARG worked out at 4.46 nM; in the assay with HCC1806 (Homo sapiens, HCC1806, 168 h), 918 nM.

For the compound `CC1(NS(=O)(=O)c2cc(N3CCN(C(=O)C4(F)CNC4)CC3)c3cnc(-c4nnc(C(F)(F)F)s4)n3c2)CC1` [Example 317, 8-(4-(3-fluoroazetidine-3-carbonyl)piperazin-1-yl)-N-(1-methylcyclopropyl)-3-(5-(trifluoromethyl)-1,3,4-thiadiazol-2-yl)imidazo[1,5-a]pyridine-6-sulfonamide], the IC50 came to 3.54 nM against PARG and 1140 nM in the assay on HCC1806 (Homo sapiens, HCC1806, 168 h).

For `CNC1(C(=O)N2CCN(c3cc(S(=O)(=O)NC4(C)CC4)cn4c(-c5nnc(C(F)(F)F)s5)ncc34)CC2)CC1` [Example 318, 8-(4-(1-(methylamino)cyclopropane-1-carbonyl)piperazin-1-yl)-N-(1-methylcyclopropyl)-3-(5-(trifluoromethyl)-1,3,4-thiadiazol-2-yl)imidazo[1,5-a]pyridine-6-sulfonamide], the half-inhibitory concentration (IC50) was found to be 1.84 nM at PARG and 363 nM with HCC1806 (Homo sapiens, HCC1806, 168 h).
